Test results as given in US20170226139A1, “CRYSTALLINE SALTS OF (Z)-O-OCTADEC-9-EN-1-YL O,O-DIHYDROGEN PHOSPHOROTHIOATE” (priority 2013, published 2017).
Values after ≈ are worked out from the molar mass of the structure shown.

Legend:
[1] = Qualitative solubility of Rx100.L-Lysine salt in 13 additional solvents; format: physicochemical; details: for Observation (qualitative solubility): ~50 mg solid
Excerpt: The solubility of Rx100.L-Lysine salt was further tested in 13 additional solvents.

[2] = Solubility measurement by gravimetric method in various solvents; format: physicochemical; details: for solubility: thermodynamic from solid
Procedure: In addition, the Rx100 L-Lysate salt was further characterized under abbreviated polymorph evaluation. First, the solubility measurement by gravimetric method was performed. Briefly, excess amount of solid was slurried in various solvents at ambient conditions and elevated temperature (50° C.) for minimum of 24 hours. The slurry was centrifuged using a temperature controlled centrifuge and the supernatant was used for gravimetric method. Table 15 presents the solubility data measured using this gravimetric method in various solvents for the L-Lysine salt. In cases where the solvent dissolved all of the solid, the value is shown as “greater than”.

[3] = abbreviated polymorph screening

CCCCCCCC/C=C\CCCCCCCCOP(O)(O)=S [Rx100.L-Lysine, (Z)—O-octadec-9-en-1-yl O,O-dihydrogen phosphorothioate]
Observation (qualitative solubility) ([1]; Acetone:water (1:1), 0.5 mL added): dissolved | Observation (qualitative solubility) ([1]; Acetone, 0.75 mL added): slurry | Observation (qualitative solubility) ([1]; EtOH:water (1:1), 0.75 mL added): dissolved | Observation (qualitative solubility) ([1]; EtOH:water (8:2), 0.75 mL added): cloudy | Observation (qualitative solubility) ([1]; EtOH, 0.75 mL added): slurry | Qualitative solubility ([1]; IPA-water (1:1)): soluble | Observation (qualitative solubility) ([1]; IPA:water (1:1), 0.75 mL added): dissolved | Observation (qualitative solubility) ([1]; IPA:water (8:2), 0.75 mL added): oil | Observation (qualitative solubility) ([1]; IPA, 0.75 mL added): slurry | Observation (qualitative solubility) ([1]; MeOH:water (1:1), 0.5 mL added): dissolved | Observation (qualitative solubility) ([1]; MeOH:water (8:2), 0.75 mL added): dissolved | Observation (qualitative solubility) ([1]; MeOH, 0.75 mL added): slurry | Observation (qualitative solubility) ([1]; THF:water (1:1), 0.5 mL added): oil | Observation (qualitative solubility) ([1]; THF, 0.75 mL added): slurry | Qualitative solubility ([1]; acetone:water (1:1)): soluble | Qualitative solubility ([1]; ethanol:water (1:1)): soluble | Qualitative solubility ([1]; methanol:water (1:1)): soluble | Qualitative solubility ([1]; methanol:water (8:2)): soluble | Solubility, gravimetric method ([2]; EtOH:water (v/v) [1:1], 25° C.): Gelled | Solubility, gravimetric method ([2]; EtOH:water (v/v) [7:3], 25° C.): Gelled | Solubility, gravimetric method ([2]; EtOH:water (v/v) [7:3], 50° C.): Gelled | Solubility, gravimetric method ([2]; IPA:water (v/v) [7:3], 25° C.): Gelled | Solubility, gravimetric method ([2]; IPA:water (v/v) [7:3], 50° C.): Gelled | Solubility, gravimetric method ([2]; MeOH:water (v/v) [1:1], 25° C.): Gelled | Solubility, gravimetric method ([2]; MeOH:water (v/v) [7:3], 50° C.): Gelled | Solubility in most aqueous solvent systems [2, 3]: moderate to high solubility | Solubility in organic systems [2, 3]: limited solubility | solubility ([2]; aqueous with cosolvent or surfactant or cyclodextrin, EtOH:water (v/v) [1:1], 50° C.): > 68 mg/mL | solubility ([2]; aqueous with cosolvent or surfactant or cyclodextrin, EtOH:water (v/v) [3:7], 25° C.): > 40 mg/mL | solubility ([2]; aqueous with cosolvent or surfactant or cyclodextrin, EtOH:water (v/v) [3:7], 50° C.): > 84 mg/mL | solubility ([2]; aqueous with cosolvent or surfactant or cyclodextrin, IPA:water (v/v) [1:1], 25° C.): > 40 mg/mL | solubility ([2]; aqueous with cosolvent or surfactant or cyclodextrin, IPA:water (v/v) [1:1], 50° C.): > 86 mg/mL | solubility ([2]; aqueous with cosolvent or surfactant or cyclodextrin, IPA:water (v/v) [3:7], 25° C.): > 46 mg/mL | solubility ([2]; aqueous with cosolvent or surfactant or cyclodextrin, IPA:water (v/v) [3:7], 50° C.): > 70 mg/mL | solubility ([2]; aqueous with cosolvent or surfactant or cyclodextrin, MeOH:water (v/v) [1:1], 50° C.): > 80 mg/mL | solubility ([2]; aqueous with cosolvent or surfactant or cyclodextrin, MeOH:water (v/v) [3:7], 25° C.): > 48 mg/mL | solubility ([2]; aqueous with cosolvent or surfactant or cyclodextrin, MeOH:water (v/v) [3:7], 50° C.): > 86 mg/mL | solubility ([2]; aqueous with cosolvent or surfactant or cyclodextrin, MeOH:water (v/v) [7:3], 25° C.): 20 mg/mL (≈ 54.9 mM) | solubility ([2]; organic solvent or mixture, EtOH, 50° C.): 3 mg/mL (≈ 8.23 mM) | solubility ([2]; organic solvent or mixture, Heptane, 50° C.): 3 mg/mL (≈ 8.23 mM) | solubility ([2]; organic solvent or mixture, IPA, 50° C.): 5 mg/mL (≈ 13.7 mM) | solubility ([2]; organic solvent or mixture, MTBE, 50° C.): 4 mg/mL (≈ 11 mM) | solubility ([2]; organic solvent or mixture, MeOH, 50° C.): 4 mg/mL (≈ 11 mM) | solubility ([2]; Water, 25° C.): > 48 mg/mL | solubility ([2]; Water, 50° C.): > 76 mg/mL
